Measurements: publication PMC10388327, “Dual Piperidine-Based Histamine H3 and Sigma-1 Receptor Ligands in the Treatment of Nociceptive and Neuropathic Pain” (Journal of Medicinal Chemistry, 2023)
Structures can show the parent of a compound that is named as a salt.

Key:
[1] = target: T1, human histamine H4 receptor (hH4R) (Homo sapiens, UniProt Q9H3N8); assay: hH4R radioligand binding ([3H]UR-PI294); conditions: read-out: hH4R (Ki [nM] x̅ [CI 95%]); HEK293T cells; n = 3, triplicate
T1 construct: SP (signal peptide) (N); FLAG (N); expressed in transfected cells
T1 sequence (Q9H3N8 whole entry): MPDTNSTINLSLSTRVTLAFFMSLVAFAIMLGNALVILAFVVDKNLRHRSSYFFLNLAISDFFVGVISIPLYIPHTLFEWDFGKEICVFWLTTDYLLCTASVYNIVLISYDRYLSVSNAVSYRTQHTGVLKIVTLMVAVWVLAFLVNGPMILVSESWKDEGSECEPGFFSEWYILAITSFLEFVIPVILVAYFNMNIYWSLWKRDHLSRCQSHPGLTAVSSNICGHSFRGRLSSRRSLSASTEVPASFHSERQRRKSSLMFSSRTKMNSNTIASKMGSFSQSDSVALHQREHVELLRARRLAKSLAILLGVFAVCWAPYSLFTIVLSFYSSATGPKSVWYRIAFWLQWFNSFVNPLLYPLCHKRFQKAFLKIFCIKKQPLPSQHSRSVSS
Procedure: (§1) To check the selectivity profile of our lead structures, radioligand binding studies at other histamine receptor subtypes were carried out. […] Obtained results clearly indicate the high selectivity of the tested derivatives toward human H3R (Table 3).
(§2) Compounds (as oxalate salts) were tested in H3R in vitro binding studies using the methods described previously.[21]−[23] […] Radioligand binding experiments at the H1R, H2R, and H4R were performed as previously described in Rosier et al.[65] and Bartole et al.[66] […] Data represent mean values ± CI from three independent experiments, each performed in triplicate. The normalized competition binding curves were then fitted with a four-parameter logistic fit yielding IC50 values using the Prism 8.4.3 software (GraphPad, San Diego, CA). The Ki values were estimated from the Cheng–Prusoff equation.[69]

[2] = target: T2, human histamine H1 receptor (hH1R) (Homo sapiens, UniProt P35367); assay: hH1R radioligand binding ([3H]mepyramine); conditions: read-out: hH1R (Ki [nM] x̅ [CI 95%]); HEK293T cells; n = 3, triplicate
T2 construct: SP (signal peptide) (N); FLAG (N); expressed in transfected cells
T2 sequence (P35367 whole entry): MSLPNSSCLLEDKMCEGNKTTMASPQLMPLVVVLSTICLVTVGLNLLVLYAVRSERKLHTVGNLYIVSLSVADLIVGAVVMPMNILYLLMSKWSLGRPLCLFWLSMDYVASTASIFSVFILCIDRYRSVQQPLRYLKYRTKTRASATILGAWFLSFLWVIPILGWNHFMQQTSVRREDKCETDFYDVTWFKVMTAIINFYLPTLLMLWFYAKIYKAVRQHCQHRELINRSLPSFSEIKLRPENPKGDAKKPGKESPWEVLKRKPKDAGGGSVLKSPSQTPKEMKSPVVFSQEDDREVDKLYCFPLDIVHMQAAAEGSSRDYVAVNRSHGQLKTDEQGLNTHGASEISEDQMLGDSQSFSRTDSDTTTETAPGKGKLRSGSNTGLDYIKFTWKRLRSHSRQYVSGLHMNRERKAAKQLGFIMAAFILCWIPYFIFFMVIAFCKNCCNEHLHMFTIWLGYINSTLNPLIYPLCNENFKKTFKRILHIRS
Procedure: as §1, §2

[3] = test system: CCI-exposed mice; assay: CCI of the sciatic nerve, cold plate test; assay type: in vivo, male albino Swiss CD-1 mice
Procedure: Behavioral assessment of 12 was performed 14 days after the sciatic nerve injury. Mice were randomly assigned to four treatment groups: vehicle-treated (i.p.) and 12-treated (5, 10, and 15 mg/kg, i.p.). Baseline measurements (basal) for all tests were performed before compound injections, and the results are presented as percentages of the maximal possible effect (% MPE). We observed a significant effect of the tested compound in the von Frey test at all tested time points (30 min: F(3, 26) = 12.38, p < 0,0001; 90 min: F(3, 26) = 12.65, p < 0.0001; 180 min: F(3, 26) = 6.464, p = 0.0020). […] We also observed a significant effect of treatment on the contralateral paw 90 min after injection (F(3, 26) = 5.741, p = 0.0037).
The model of chronic constriction injury (CCI) to the sciatic nerve was established according to Bennett and Xie.[94] The surgical method was performed under isoflurate anesthesia (2% isoflurane in 100% oxygen with a flow of 1.5 L/min).[95] Below the right hipbone, a small incision was performed, and three ligatures (4/0 silk) around the sciatic nerve were made (with 1 mm spacing) until a brief twitch in the respective hind limb was observed. All mice that underwent the CCI procedure developed hypersensitivity to mechanical and thermal stimuli. Behavioral tests were performed at day 14 after injury. Compound 12 was dissolved in 10% DMSO/10% (2-hydroxypropyl)-β-cyclodextrin/water and administered i.p. at doses 5, 10, and 15 mg/kg (injection volume 10 mL/kg of body weight). The control group received the vehicle (10% DMSO/10% (2-hydroxypropyl)-β-cyclodextrin/water).
Behavioral experiments were performed between 8:00 a.m. and 2:00 p.m. Across the experiments, we compared vehicle-treated mice with 12-treated animals. […]
Sensitivity to noxious thermal stimuli was assessed with the cold plate test (Cold/Hot Plate Analgesia Meter, Columbus Instruments) as previously described.[95] […] The mice were placed on the cold plate, and the time until lifting of the injured paw was recorded.

[4] = serum metabolic stability
[5] = test system: mice; assay: loperamide-induced antinociception (paw pressure, struggle response latency); assay type: in vivo, Female CD1 mice
[6] = target: T3, human recombinant histamine H3R (Homo sapiens, UniProt Q9Y5N1); assay: hH3R radioligand binding ([3H]Nα-methylhistamine depletion assay); conditions: read-out: hH3R Ki [nM] x̄ [CI 95%]; mean [CI 95%]; HEK-293 cells
T3 construct: expressed in transfected cells
T3 sequence (Q9Y5N1 whole entry): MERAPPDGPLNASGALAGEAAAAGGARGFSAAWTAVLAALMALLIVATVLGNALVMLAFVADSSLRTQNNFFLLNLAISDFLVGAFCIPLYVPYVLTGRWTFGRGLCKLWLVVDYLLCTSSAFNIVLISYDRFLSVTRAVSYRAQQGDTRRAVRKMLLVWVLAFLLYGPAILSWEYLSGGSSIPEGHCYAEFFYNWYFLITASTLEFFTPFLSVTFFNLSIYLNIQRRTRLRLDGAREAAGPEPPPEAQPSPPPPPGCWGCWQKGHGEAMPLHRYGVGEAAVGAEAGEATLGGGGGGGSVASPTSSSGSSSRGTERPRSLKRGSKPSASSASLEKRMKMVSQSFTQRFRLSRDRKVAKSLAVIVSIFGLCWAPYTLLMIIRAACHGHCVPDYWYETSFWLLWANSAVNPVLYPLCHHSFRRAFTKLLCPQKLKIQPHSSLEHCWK

[7] = target: T4, sigma-2 receptor (σ2R) (Rattus norvegicus, UniProt Q5U3Y7); assay: σ2R radioligand binding ([3H]DTG); conditions: read-out: σ2R Ki [nM] x̄ [CI 95%]; mean [CI 95%]
T4 construct: The thawed membrane preparation of rat liver was incubated; from tissue; host or cells: Sprague-Dawley rat liver membranes
T4 sequence (Q5U3Y7 1-176): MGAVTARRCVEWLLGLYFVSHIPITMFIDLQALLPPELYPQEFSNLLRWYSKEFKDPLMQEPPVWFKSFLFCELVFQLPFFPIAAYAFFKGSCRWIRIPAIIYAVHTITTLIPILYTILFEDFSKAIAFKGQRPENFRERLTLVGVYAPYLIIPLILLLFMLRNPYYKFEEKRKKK

[8] = test system: mice; assay: formalin test; assay type: in vivo; conditions: Mus musculus, ip
Text: The formalin test is one of the most useful screening models for testing potentially clinically relevant antinociceptive molecules because of its ease of administration, standardization, and validation with reference drugs.[50] The subcutaneous injection of formalin results in a focal injury that stimulates and then damages sensory endings. Two distinct phases of nociceptive response are associated with the immediate activation of nociceptors and sensitization of spinal reflex circuits during phase I and II responses, respectively.[51]
The procedure used was essentially the same as that described previously.[86],[87] Briefly, 20 μL of 1.5% formalin solution was injected intraplantarly (i.pl.) into the mice right hind paw using a 26-gauge needle. […] The total time (in seconds) spent on licking the injected paw during periods of 0–5 min (early phase, neurogenic) and 15–30 min (late phase, inflammatory) was measured and was considered as an indicator of nociceptive behavior. Before formalin injection, different groups of mice were treated i.p. with the vehicle (10 mL/kg, negative control) and the varying doses of 12 (5, 10, 15, and 30 mg/kg).

[9] = test system: mice; assay: capsaicin-induced nociception; assay type: in vivo
Procedure: The procedure used was similar to that described previously.[88],[89] The pain reaction was induced by the injection of 20 μL of capsaicin solution (1.6 μg/paw made in PBS) under the skin of the dorsal surface of the mice right hindpaw. The animals were observed individually in an observation chamber for 5 min following capsaicin injection. The amount of time spent licking the injected paw was recorded by means of the stopwatch and was considered as indicative of pain. The animals were pretreated with the vehicle (10 mL/kg, negative control) and investigated compound (10, 15, and 30 mg/kg).

SMILES: N#Cc1ccc(-c2ccc(OCCCN3CCC(c4ccncc4)CC3)cc2)cc1 [Compound 12, 4′-(3-(4-(Pyridin-4-yl)piperidin-1-yl)propoxy)-[1,1′-biphenyl]-4-carbonitrile Oxalate]
- Ki [1]: > 10000 nM
- Ki [2]: 653 nM
- analgesic effect, cold plate test ([3]; 35 min after i.p. injection, 5, 10, 15 mg/kg): analgesic effects of 12 single injection were observed at 35 min for all tested doses
- analgesic effect, cold plate test ([3]; 95 min after i.p. injection, 5, 10, 15 mg/kg): antihyperalgesic effect was also observed 95 min after injection
- analgesic effect, cold plate test ([3]; 185 min after i.p. injection): significant only for doses 5 (p = 0.0482) and 10 mg/kg (p < 0.0001)
- serum stability assessment [4]: moderately stable ligand
- half-life at 24 h ([4]; serum (made from plasma by clotting with calcium chloride)): 7.7 ± 1.4 h
- in vivo σ1 receptor functional profile ([5]; concluded from PRE-084 reversal): σ1 receptor antagonists
- effect on loperamide-induced antinociception ([5]; i.pl. with loperamide 4 mg/kg s.c., injected paw): dose-dependently (12.5–25 μg) increased the antinociceptive effect of loperamide at the injected paw
- effect alone on struggle response latency ([5]; i.pl., S1RA 100 μg, 12 25 μg, 450 g pressure): did not have any effect per se
- Ki [6]: 7.7 nM
- Ki [7]: 10 nM
- ED50 ([8]; 0–5 min after formalin, read-out: ED50, formalin test phase I (acute phase)): 6.17 mg/kg
- ED50 ([8]; 15–30 min after formalin, read-out: ED50, formalin test phase II (late phase)): 12.3 mg/kg
- effect on nociceptive response in capsaicin test ([9]; 10, 15 and 30 mg/kg): significantly decreased the paw licking or biting behavior
- ED50 ([9]; Mus musculus, 5 min, 5 min after intraplantar capsaicin, read-out: ED50, capsaicin test): 10.3 mg/kg
